Measurements: US11446287B2, “Compounds and methods for EP300 or CBP modulation and indications therefor” (Opna Immuno-Oncology SA, priority 2019, dated 2022)
pIC50: −log10 of the molar value.

Biological target: T1, Recombinant human EP300 containing the bromodomain (EP300-BD (1040-1161)) (Homo sapiens, UniProt Q09472)
T1 construct: Recombinant human EP300 bromodomain (EP300-BD (1040-1161)); made in house; host or cells: E. coli BL21-CodonPlus (DE3), modified pET vector
T1 sequence (Q09472 1040-1161): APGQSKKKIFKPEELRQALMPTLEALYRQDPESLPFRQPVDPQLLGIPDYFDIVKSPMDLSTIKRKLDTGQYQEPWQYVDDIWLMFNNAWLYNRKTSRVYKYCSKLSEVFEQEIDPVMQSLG
Test: EP300 Alphascreen binding assay
Experimental: EP300 Alphascreen Binding Assay
Binding of compounds of Formula (I) with EP300 was assessed using Alphascreen™ binding assay. The inhibition of the interaction between the EP300 bromodomain and its acetylated target protein was measured quantitatively using recombinant EP300 protein, an acetylated Histone 3 peptide and AlphaScreen™ technology. In absence of inhibition of the EP300 protein bound to AlphaScreen™ nickel chelate acceptor beads can interact with the acetylated Histone 3 peptide which is immobilized by the AlphaScreen™ Streptavidin coated beads. This interaction brings donor and acceptor beads in proximity. The close proximity allows the singlet oxygen produced by laser excitation of the donor beads to reach the acceptor beads and generate a luminescence signal. EP300 inhibitors result in a decrease in the proximity signal through an inhibition of the EP300—acetylated peptide interaction.
Recombinant human EP300 containing the bromodomain (EP300-BD (1040-1161)) was prepared and purified as described in protein expression and purification session. The peptide is human Histone H345-64K56Ac-Biotin (Anaspec CA, USA).
Protocol for EP300 assay: All components were prepared in buffer composed of 50 mM HEPES pH 7.5, 50 mM NaCl, 0.01% BSA, 0.01% Triton X-100, 2 mM DTT. Test compounds and DMSO vehicle were diluted 1:50 in buffer and a 4 μL volume is transferred to an Alphaplate. 5.5 μL of EP300 protein and 5.5 μL of peptide were added to wells containing 4 μL of various concentrations of test compounds of Formula (I) or DMSO vehicle in an Alphaplate (PerkinElmer GA, USA) and incubated for 1 hour at room temperature. 5 μL donor and acceptor bead mixture was then added with final concentrations of 7.5 μg/ml. 60 minutes after bead addition, Alpha signal is read on the Envision spectrometer (λEx 680 nm, λEm 520-620 nm). Final concentrations of bromodomain proteins and peptide are as shown below.
All data were normalized to the mean of 16 high and 16 low control wells on each plate. A four parameter curve fit of the following formula was then applied: Y=A+((B−A)/(1+((C/x)^D))) Where ‘A’ is the minimum, ‘B’ is the maximum, ‘C’ is the IC50 and ‘D’ is the Hill slope. Protein Expression and Purification
Recombinant human EP300 bromodomain (EP300-BD (1040-1161)) was expressed in E. coli cells (in a modified pET vector) with an N-terminal six-His tag and purified using a combination of both IMAC (Ni-affinity) and size exclusion chromatography steps.
Recombinant EP300 protein was expressed using the E. coli strain BL21-CodonPlus (DE3) (Agilent Technologies CA, USA). Cells were grown in Terrific Broth (TB) media to an OD600 of 0.7 at 37° C. at which temperature was reduced to 18° C., protein was induced with 1.0 mM isopropyl-β-D-thiogalactopyranoside (“IPTG”) for 20 hours and harvested by centrifugation at 8500×g for 20 minutes. Cells were re-suspended in 0.1M K2PO4 pH 8.0, 250 mM NaCl, 10% Glycerol, 0.75% NP-40, 25 mM Imidazole, with 0.2 mg/ml Lysozyme, 0.2 mM phenylmethanesulfonyl fluoride (“PMSF”), 25 μg/ml DNase I, incubated on ice for 30 minutes and lysed with a cell disruptor (MicroFluidics MA, USA). The lysate was clarified by centrifugation at 20,000×g for 1 hour. The protein was captured with Ni-NTA resin (Life Technologies, USA). Contaminating proteins were washed off with 50 mM HEPES pH 7.5, 500 mM NaCl, and 5% Glycerol. Following 3× wash steps, protein was eluted step wise using 10, 25, 50, 100, 150, and 250 mM Imidazole in 50 mM HEPES pH 7.5, 500 mM NaCl, and 5% glycerol. The protein was further purified using a size exclusion column (26/600 Superdex 200, GE Biosciences NJ, USA) in 10 mM HEPES pH 7.5, […].

**Q.** How did the pIC50 turn out when `CCOc1cc(C(=O)O)ccc1-c1cn([C@@H](C)c2ccccn2)c2ncc(-c3c(C)noc3C)cc12` [P-0114, (S)-4-(5-(3,5-dimethylisoxazol-4-yl)-1-(1-(pyridin-2-yl)ethyl)-1H-pyrrolo[2,3-b]pyridin-3-yl)-3-ethoxybenzoic acid] was run?
**A.** 6.00 to 10.00

**Q.** How did the pIC50 turn out when `Cc1noc(C)c1-c1cnc2c(c1)c(-c1ccc(C(=O)O)cc1OCC(F)(F)F)cn2[C@@H](C)c1ccccn1` [P-0115, (S)-4-(5-(3,5-dimethylisoxazol-4-yl)-1-(1-(pyridin-2-yl)ethyl)-1H-pyrrolo[2,3-b]pyridin-3-yl)-3-(2,2,2-trifluoroethoxy)benzoic acid] was run?
**A.** 6.00 to 10.00

**Q.** `Cc1noc(C)c1-c1cnc2c(c1)c(-c1ccc(C(=O)O)cc1C(F)(F)F)cn2[C@@H](C)c1ccccn1` [P-0116, (S)-4-(5-(3,5-dimethylisoxazol-4-yl)-1-(1-(pyridin-2-yl)ethyl)-1H-pyrrolo[2,3-b]pyridin-3-yl)-3-(trifluoromethyl)benzoic acid] was tested. Which pIC50 did it give?
**A.** 6.00 to 10.00

**Q.** With `CCCOc1cc(C(=O)O)cc(OCCC)c1-c1cn([C@@H](C)c2ccccn2)c2ncc(-c3c(C)noc3C)cc12` [P-0117, (S)-4-(5-(3,5-dimethylisoxazol-4-yl)-1-(1-(pyridin-2-yl)ethyl)-1H-pyrrolo[2,3-b]pyridin-3-yl)-3,5-dipropoxybenzoic acid] as the compound, how does the pIC50 read?
**A.** 6.00 to 10.00

**Q.** With `Cc1noc(C)c1-c1cnc2c(c1)c(-c1c(OC(C)C)cc(C(=O)O)cc1OC(C)C)cn2[C@@H](C)c1ccccn1` [P-0118, (S)-4-(5-(3,5-dimethylisoxazol-4-yl)-1-(1-(pyridin-2-yl)ethyl)-1H-pyrrolo[2,3-b]pyridin-3-yl)-3,5-diisopropoxybenzoic acid] as the compound, how does the pIC50 read?
**A.** 6.00 to 10.00

**Q.** `COc1cc(C(=O)O)cc(OC)c1-c1cn(C(C)c2ccccc2)c2cc(-c3c(C)noc3C)cnc12` (centres unmarked) [P-0119, 4-(6-(3,5-dimethylisoxazol-4-yl)-1-(1-phenylethyl)-1H-pyrrolo[3,2-b]pyridin-3-yl)-3,5-dimethoxybenzoic acid] was tested. Which pIC50 did it give?
**A.** 6.00 to 10.00

**Q.** `Cc1noc(C)c1-c1cnc2c(-c3ccccc3C(=O)O)cn(C(C)c3ccccc3)c2c1` (centres unmarked) [P-0120, 2-(6-(3,5-dimethylisoxazol-4-yl)-1-(1-phenylethyl)-1H-pyrrolo[3,2-b]pyridin-3-yl)benzoic acid] was tested. Which pIC50 did it give?
**A.** 6.00 to 10.00

**Q.** With `Cc1noc(C)c1-c1cnc2c(C(=O)C3CCC3)cn(-c3c(Cl)cc(C(=O)O)cc3Cl)c2c1` [P-0121, 3,5-dichloro-4-(3-(cyclobutanecarbonyl)-6-(3,5-dimethylisoxazol-4-yl)-1H-pyrrolo[3,2-b]pyridin-1-yl)benzoic acid] as the compound, how does the pIC50 read?
**A.** 6.00 to 10.00

**Q.** With `Cc1noc(C)c1-c1cnc2c(c1)c(-c1cccc(C(=O)O)n1)cn2C(C)c1ccccn1` (centres unmarked) [P-0122, 6-(5-(3,5-dimethylisoxazol-4-yl)-1-(1-(pyridin-2-yl)ethyl)-1H-pyrrolo[2,3-b]pyridin-3-yl)picolinic acid] as the compound, how does the pIC50 read?
**A.** 5.10 to 6.00

**Q.** With `Cc1noc(C)c1-c1cnc2c(c1)c(-c1ccc(C(=O)O)cn1)cn2C(C)c1ccccn1` (centres unmarked) [P-0123, 6-(5-(3,5-dimethylisoxazol-4-yl)-1-(1-(pyridin-2-yl)ethyl)-1H-pyrrolo[2,3-b]pyridin-3-yl)nicotinic acid] as the compound, how does the pIC50 read?
**A.** 6.00 to 10.00

**Q.** With `Cc1noc(C)c1-c1cnc2c(c1)c(-c1cc(C(=O)O)ccn1)cn2C(C)c1ccccn1` (centres unmarked) [P-0124, 2-(5-(3,5-dimethylisoxazol-4-yl)-1-(1-(pyridin-2-yl)ethyl)-1H-pyrrolo[2,3-b]pyridin-3-yl)isonicotinic acid] as the compound, how does the pIC50 read?
**A.** 6.00 to 10.00

**Q.** `Cc1noc(C)c1-c1cnc2c(c1)c(-c1ccc(F)c(C(=O)O)c1F)cn2[C@@H](C)c1ccccn1` [P-0125, (S)-3-(5-(3,5-dimethylisoxazol-4-yl)-1-(1-(pyridin-2-yl)ethyl)-1H-pyrrolo[2,3-b]pyridin-3-yl)-2,6-difluorobenzoic acid] was tested. Which pIC50 did it give?
**A.** 6.00 to 10.00

**Q.** With `Cc1noc(C)c1-c1cnc2c(c1)c(-c1ccnc(C(=O)O)n1)cn2C(C)c1ccccn1` (centres unmarked) [P-0126, 4-(5-(3,5-dimethylisoxazol-4-yl)-1-(1-(pyridin-2-yl)ethyl)-1H-pyrrolo[2,3-b]pyridin-3-yl)pyrimidine-2-carboxylic acid] as the compound, how does the pIC50 read?
**A.** 6.00 to 10.00

**Q.** With `CCCOc1cc(C(=O)O)cc(OCCC)c1-n1cc(CC2CCC2)c2ncc(-c3c(C)noc3C)cc21` [P-0127, 4-(3-(cyclobutylmethyl)-6-(3,5-dimethylisoxazol-4-yl)-1H-pyrrolo[3,2-b]pyridin-1-yl)-3,5-dipropoxybenzoic acid] as the compound, how does the pIC50 read?
**A.** 6.00 to 10.00

**Q.** With `Cc1noc(C)c1-c1cnc2c(Cc3cccc(Cl)c3)cn(-c3c(Cl)cc(C(=O)O)cc3Cl)c2c1` [P-0128, 3,5-dichloro-4-(3-(3-chlorobenzyl)-6-(3,5-dimethylisoxazol-4-yl)-1H-pyrrolo[3,2-b]pyridin-1-yl)benzoic acid] as the compound, how does the pIC50 read?
**A.** 6.00 to 10.00

**Q.** How did the pIC50 turn out when `Cc1noc(C)c1-c1cnc2c(C(=O)c3cccc(OC(F)F)c3)cn(-c3c(Cl)cc(C(=O)O)cc3Cl)c2c1` [P-0129, 3,5-dichloro-4-(3-(3-(difluoromethoxy)benzoyl)-6-(3,5-dimethylisoxazol-4-yl)-1H-pyrrolo[3,2-b]pyridin-1-yl)benzoic acid] was run?
**A.** 6.00 to 10.00

**Q.** With `Cc1noc(C)c1-c1cnc2c(CC3CCC3)cn(-c3ccc([N+](=O)[O-])cc3F)c2c1` [P-0130, 4-(3-(cyclobutylmethyl)-1-(2-fluoro-4-nitrophenyl)-1H-pyrrolo[3,2-b]pyridin-6-yl)-3,5-dimethylisoxazole] as the compound, how does the pIC50 read?
**A.** 3.00 to 5.10

**Q.** `Cc1noc(C)c1-c1cnc2c(Cc3ccccc3Cl)cn(-c3c(Cl)cc(C(=O)O)cc3Cl)c2c1` [P-0131, 3,5-dichloro-4-(3-(2-chlorobenzyl)-6-(3,5-dimethylisoxazol-4-yl)-1H-pyrrolo[3,2-b]pyridin-1-yl)benzoic acid] was tested. Which pIC50 did it give?
**A.** 6.00 to 10.00

**Q.** `Cc1noc(C)c1-c1cnc2c(Cc3cccc(OCc4ccccc4)c3)cn(-c3c(Cl)cc(C(=O)O)cc3Cl)c2c1` [P-0132, 4-(3-(3-(benzyloxy)benzyl)-6-(3,5-dimethylisoxazol-4-yl)-1H-pyrrolo[3,2-b]pyridin-1-yl)-3,5-dichlorobenzoic acid] was tested. Which pIC50 did it give?
**A.** 6.00 to 10.00

**Q.** `Cc1noc(C)c1-c1cnc2c(C(=O)c3cccc(OCc4ccccc4)c3)cn(-c3c(Cl)cc(C(=O)O)cc3Cl)c2c1` [P-0133, 4-(3-(3-(benzyloxy)benzoyl)-6-(3,5-dimethylisoxazol-4-yl)-1H-pyrrolo[3,2-b]pyridin-1-yl)-3,5-dichlorobenzoic acid] was tested. Which pIC50 did it give?
**A.** 6.00 to 10.00

**Q.** How did the pIC50 turn out when `COc1ccc(-n2cc(CC3CCC3)c3ncc(-c4c(C)noc4C)cc32)cn1` [P-0134, 4-(3-(cyclobutylmethyl)-1-(6-methoxypyridin-3-yl)-1H-pyrrolo[3,2-b]pyridin-6-yl)-3,5-dimethylisoxazole] was run?
**A.** 5.10 to 6.00

**Q.** How did the pIC50 turn out when `COc1cc(C(=O)O)cc(OCc2ccccc2)c1-c1cn([C@@H](C)c2ccccn2)c2ncc(-c3c(C)noc3C)cc12` [P-0135, (S)-3-(benzyloxy)-4-(5-(3,5-dimethylisoxazol-4-yl)-1-(1-(pyridin-2-yl)ethyl)-1H-pyrrolo[2,3-b]pyridin-3-yl)-5-methoxybenzoic acid] was run?
**A.** 6.00 to 10.00

**Q.** `COc1c(C(=O)O)cccc1-c1cn(C(C)c2ccccc2)c2cc(-c3c(C)noc3C)cnc12` (centres unmarked) [P-0136, 3-(6-(3,5-dimethylisoxazol-4-yl)-1-(1-phenylethyl)-1H-pyrrolo[3,2-b]pyridin-3-yl)-2-methoxybenzoic acid] was tested. Which pIC50 did it give?
**A.** 6.00 to 10.00
